Assay results taken from publication PMC7115582 (European Journal of Medicinal Chemistry, 2018).

System: lentiviral pseudoparticles carrying H1-HA and N1-NA (from A/PR/8/34)
Format: cell-based, influenza A virus
Details: control compounds; MDCK cells; Fig. 3

| Structure (SMILES) | inhibition of pseudoparticle entry, in words |
| --- | --- |
| CCN(CC)CCCC(C)Nc1ccnc2cc(Cl)ccc12 (stereo not shown) [chloroquine] | Strong and dose-dependent inhibition |
| COC(=O)[C@@H]1NC(=O)[C@@H]2NC(=O)[C@H](NC(=O)[C@@H]3NC(=O)[C@H]4NC(=O)[C@H](NC(=O)[C@H](Nc5c(NCc6ccc(-c7ccccc7)cc6)c(=O)c5=O)c5ccc(O)c(c5)Oc5cc4cc(O)c5C)[C@H](O)c4ccc(cc4)Oc4cc3cc(c4O)Oc3ccc(cc3)[C@H]2O)c2ccc(O)c(c2)-c2c(O)cc(O)cc21 [SA-19] | Strong and dose-dependent inhibition |
| CC(C)c1ccccc1NCCN1CCCCC1.Cl [Compound 80] | Strong and dose-dependent inhibition |
| CCc1ccccc1OCCN1CCCCCC1 [Compound 81] | Strong and dose-dependent inhibition |
